In patent publication US8309586B2, “Glucokinase activators and pharmaceutical compositions containing the same as an active ingredient” (LG Life Sciences Ltd., priority 2007, dated 2012):

What follows are compounds tested on Glucokinase known as hexokinase IV (human GK isoform 1, pancreas form and human GK isoform 2, liver form) (assay: Glucokinase enzymatic activity assay (G6PDH-coupled, NADH absorbance at 340 nm)). Conditions: 5 mM glucose, 1 mM ATP, 37 nM GK, 10 min at room temperature.
Format: biochemical
Description: Glucokinase known as hexokinase IV (human GK isoform 1, pancreas form and human GK isoform 2, liver form) was cloned into an expression vector pET15 fx (Novagen Co.), transformed to E. coli BL21 (DE3) (Invitrogen Co.) strain, expressed, and purified using a nickel column. Then, the glucokinase obtained from dialysis was used in the following assay.
Glucokinase assay was performed by measuring absorbance according to the conventional manner. Briefly speaking, glucokinase converts the substrate glucose to glucose-6-phosphate under certain conditions, and glucose-6-phosphate dehydrogenase irreversibly converts glucose-6-phosphate to gluconate-6-phosphate. During this procedure, NADH is formed, and its absorbance is measured to calculate the enzymatic activity.
In the measurement of the enzymatic activity, each compound was diluted by two-fold from the maximum to the minimum concentrations, and 2 μl of each solution was added to 96 well UV plate (BD bioscience). 60 μl of the first mixture (final concentrations 25 mM Hepes, 25 mM KCl, 2 mM MgCl2, 1 mM DTT) was added, and thoroughly mixed. 38 μl of the enzyme mixture (final concentrations 1 mM ATP, 1 mM NAD, 5 mM glucose, 0.85U G6PDH, 37 nM GK) was added (final volume 100 μl), and the mixture was reacted for 10 min at room temperature. The absorbance of NADH was measured at 340 nm using a UV spectrometer (Molecular Device).
The enzyme activating abilities of the compounds according to the present invention are represented as AC1.5 (the compound concentration at which the enzymatic activity is increased by 1.5 times, nM), which is in the range of 0.001 uM to 30 uM or less, preferably 0.001 uM to 10 uM, more preferably 0.001 uM to 1 uM.

| AC1.5 (the compound concentration at which the enzymatic activity is increased by 1.5 times) | Compound |
| --- | --- |
| 45 nM | O=C(C[C@@H]1CSC(c2cc3cc(Cl)cc(NC4CCOCC4)c3[nH]2)=N1)N1CCOCC1 [Example 83, 2-{(R)-2-[5-chloro-7-(tetrahydro-pyran-4-ylamino)-1H-indol-2-yl]-4,5-dihydro-thiazol-4-yl}-1-morpholin-4-yl-ethanone] |
| 12 nM | O=C(CC[C@@H]1CSC(c2cc3cc(Cl)cc(NC4CCCC4)c3[nH]2)=N1)NCCN1CCOCC1 [Example 153, 3-[(R)-2-(5-chloro-7-cyclopentylamino-1H-indol-2-yl)-4,5-dihydro-thiazol-4-yl]-N-(2-morpholin-4-yl-ethyl)-propionamide] |
| 23 nM | CC(=O)N1CCN(C(=O)C[C@@H]2CSC(c3cc4cc(F)cc(NC5CCCC5)c4[nH]3)=N2)CC1 [Example 86, 1-(4-acetyl-piperazin-1-yl)-2-[(R)-2-(7-cyclopentylamino-5-fluoro-1H-indol-2-yl)-4,5-dihydro-thiazol-4-yl]-ethanone] |
| 23 nM | O=C(O)COC[C@@H]1CSC(c2cc3cc(F)cc(NC4CCCC4)c3[nH]2)=N1 [Example 171, [(R)-2-(7-cyclopentylamino-5-fluoro-1H-indol-2-yl)-4,5-dihydro-thiazol-4-ylmethoxy]-acetic acid] |
| 5 nM | O=C(O)CC[C@@H]1CSC(c2cc3cc(Br)cc(NC4CCCC4)c3[nH]2)=N1 [Example 163, 3-[(R)-2-(5-bromo-7-cyclopentylamino-1H-indol-2-yl)-4,5-dihydro-thiazol-4-yl]-propionic acid] |
| 15 nM | CS(=O)(=O)CC[C@@H]1CSC(c2cc3cc(Cl)cc(NC4CCCC4)c3[nH]2)=N1 [Example 108, {5-chloro-2-[(R)-4-(2-methanesulfonyl-ethyl)-4,5-dihydro-thiazol-2-yl]-1H-indol-7-yl}-cyclopentyl-amine] |
| 21 nM | CN(C)CC[C@@H]1CSC(c2cc3cccc(Oc4ccccc4)c3[nH]2)=N1 [Example 178, dimethyl-{2-[(R)-2-(7-phenoxy-1H-indol-2-yl)-4,5-dihydro-thiazol-4-yl]ethyl}-amine] |
| 7 nM | CCS(=O)(=O)N1CCN(CC[C@@H]2CSC(c3cc4cc(Cl)cc(NC5CCCC5)c4[nH]3)=N2)CC1 [Example 98, (5-chloro-2-{(R)-4-[2-(4-ethanesulfonyl-piperazin-1-yl)-ethyl]-4,5-dihydro-thiazol-2-yl}-1H-indol-7-yl)-cyclopentyl-amine] |
| 37 nM | c1cc(NC2CCCC2)c2[nH]c(C3=N[C@H](CCN4CCOCC4)CS3)cc2c1 [Example 143, cyclopentyl-{2-[(R)-4-(2-morpholin-4-yl-ethyl)-4,5-dihydro-thiazol-2-yl]-1H-indol-7-yl}-amine] |
| 10 nM | CNC(=O)C[C@@H]1CSC(c2cc3cc(OC)cc(NC4CCCC4)c3[nH]2)=N1 [Example 87, 2-[(R)-2-(7-cyclopentylamino-5-methoxy-1H-indol-2-yl)-4,5-dihydro-thiazol-4-yl]-N-methyl-acetamide] |
| 67 nM | O=S1(=O)CCN(CC[C@@H]2CSC(c3cc4cc(F)cc(NC5CCCC5)c4[nH]3)=N2)CC1 [Example 129, cyclopentyl-(2-{(R)-4-[2-(1,1-dioxo-thiomorpholin-4-yl)-ethyl]-4,5-dihydro-thiazol-2-yl}-5-fluoro-1H-indol-7-yl)-amine] |
| 24 nM | CCOC(=O)CC[C@@H]1CSC(c2cc3cc(C)cc(NC4CCCC4)c3[nH]2)=N1 [Example 157, 3-[(R)-2-(7-cyclopentylamino-5-methyl-1H-indol-2-yl)-4,5-dihydro-thiazol-4-yl]-propionic acid ethyl ester] |
| 23 nM | CC(=O)N1CCN(CC[C@@H]2CSC(c3cc4cc(F)cc(NC5CCCC5)c4[nH]3)=N2)CC1 [Example 125, 1-(4-{2-[(R)-2-(7-cyclopentylamino-5-fluoro-1H-indol-2-yl)-4,5-dihydro-thiazol-4-yl]-ethyl}-piperazin-1-yl)-ethanone] |
| 11 nM | CN1CCN(CC[C@@H]2CSC(c3cc4cc(Cl)cc(NC5CCCC5)c4[nH]3)=N2)CC1 [Example 100, (5-chloro-2-{(R)-4-[2-(4-methyl-piperazin-1-yl)-ethyl]-4,5-dihydro-thiazol-2-yl}-1H-indol-7-yl)-cyclopentyl-amine] |

Second part, the compound before the results:

| Compound | AC1.5 (the compound concentration at which the enzymatic activity is increased by 1.5 times) |
| --- | --- |
| COC(=O)C[C@@H]1CSC(c2cc3cc(OC)cc(NC4CCOCC4)c3[nH]2)=N1 [Example 50, {(R)-2-[5-methoxy-7-(tetrahydro-pyran-4-ylamino)-1H-indol-2-yl]-4,5-dihydro-thiazol-4-yl}-acetic acid methyl ester] | 28 nM |
| OC[C@@H]1CSC(c2cc3cc(Cl)cc(NC4CCCC4)c3[nH]2)=N1 [Example 7, [(R)-2-(5-chloro-7-cyclopentylamino-1H-indol-2-yl)-4,5-dihydro-thiazol-4-yl]-methanol] | 7 nM |
| OC[C@@H]1CSC(c2cc3cccc(NC4CCOC4)c3[nH]2)=N1 (stereo partly drawn) [Example 3, {(R)-2-[7-(tetrahydro-furan-3-ylamino)-1H-indol-2-yl]-4,5-dihydro-thiazol-4-yl}-methanol] | 184 nM |
| COc1cc(NC2CCOCC2)c2[nH]c(C3=N[C@H](CC(=O)O)CS3)cc2c1 [Example 51, {(R)-2-[5-methoxy-7-(tetrahydro-pyran-4-ylamino)-1H-indol-2-yl]-4,5-dihydro-thiazol-4-yl}-acetic acid] | 167 nM |
| O=C(C[C@@H]1CSC(c2cc3cc(Cl)cc(NC4CCCC4)c3[nH]2)=N1)NCCCN1CCOCC1 [Example 75, 2-[(R)-2-(5-chloro-7-cyclopentylamino-1H-indol-2-yl)-4,5-dihydro-thiazol-4-yl]-N-(3-morpholin-4-yl-propyl)-acetamide] | 21 nM |
| Cc1cc(NC2CCC(=O)CC2)c2[nH]c(C3=N[C@H](CC(=O)O)CS3)cc2c1 [Example 63, {(R)-2-[5-methyl-7-(4-oxo-cyclohexylamino)-1H-indol-2-yl]-4,5-dihydro-thiazol-4-yl}-acetic acid] | 119 nM |
| O=C(C[C@@H]1CSC(c2cc3cc(Cl)cc(NC4CCCC4)c3[nH]2)=N1)N1CCCCC1 [Example 81, 2-[(R)-2-(5-chloro-7-cyclopentylamino-1H-indol-2-yl)-4,5-dihydro-thiazol-4-yl]-1-piperidin-1-yl-ethanone] | 6 nM |
| CS(=O)(=O)Cc1cc(NC2CCCC2)c2[nH]c(C3=N[C@H](CCN4CCOCC4)CS3)cc2c1 [Example 71, cyclopentyl-{5-methanesulfonylmethyl-2-[(R)-4-(2-morpholin-4-yl-ethyl)-4,5-dihydro-thiazol-2-yl]-1H-indol-7-yl}-amine] | 31 nM |
| OC[C@@H]1CSC(c2cc3cc(Cn4ccnc4)cc(NC4CCCC4)c3[nH]2)=N1 [Example 22, [(R)-2-(7-cyclopentylamino-5-imidazol-1-ylmethyl-1H-indol-2-yl)-4,5-dihydro-thiazol-4-yl}-methanol] | 112 nM |
| c1cc(NC2CCCC2)c2[nH]c(C3=N[C@H](CN4CCOCC4)CS3)cc2c1 [Example 16, cyclopentyl-[2-((R)-4-morpholin-4-ylmethyl-4,5-dihydro-thiazol-2-yl)-1H-indol-7-yl]-amine] | 64 nM |
| CCOC(=O)C[C@@H]1CSC(c2cc3cc(OC)cc(NC4CCCC4)c3[nH]2)=N1 [Example 49, [(R)-2-(7-cyclopentylamino-5-methoxy-1H-indol-2-yl)-4,5-dihydro-thiazol-4-yl]-acetic acid ethyl ester] | 35 nM |
| CCOC(=O)C[C@@H]1CSC(c2cc3cc(Cl)cc(NC4CCCC4)c3[nH]2)=N1 [Example 28, [(R)-2-(5-chloro-7-cyclopentylamino-1H-indol-2-yl)-4,5-dihydro-thiazol-4-yl]acetic acid ethyl ester] | 8 nM |
| COC(=O)C[C@@H]1CSC(c2cc3cc(COc4ccccc4)cc(NC4CCCC4)c3[nH]2)=N1 [Example 65, [(R)-2-(7-cyclopentylamino-5-phenoxymethyl-1H-indol-2-yl)-4,5-dihydro-thiazol-4-yl]-acetic acid methyl ester] | 23 nM |
